The text below walks through data of patent publication US6734212B2, “Methods and compositions for treating or preventing bacterial infection” (Shanghai East Best Biopharmaceutical, priority 2001, dated 2004).

One data set has as its system E. coli. The experiment in a line: Effects of GMCHA derivatives on E. coli growth. The conditions noted are these: for IC50: Escherichia coli; for E. coli IC91 / E. coli IC100: growth, Table 2. The data set is classed as cell-based.
For another data set, the target named is T1, E. coli Proteinase In (Escherichia coli, UniProt P27298).
T1 construct: We detected a single activity and had purified it to homogeneity; made in house; host or cells: endogenous enzyme purified from E. coli extracts (not recombinant)
T1 sequence (P27298 whole entry): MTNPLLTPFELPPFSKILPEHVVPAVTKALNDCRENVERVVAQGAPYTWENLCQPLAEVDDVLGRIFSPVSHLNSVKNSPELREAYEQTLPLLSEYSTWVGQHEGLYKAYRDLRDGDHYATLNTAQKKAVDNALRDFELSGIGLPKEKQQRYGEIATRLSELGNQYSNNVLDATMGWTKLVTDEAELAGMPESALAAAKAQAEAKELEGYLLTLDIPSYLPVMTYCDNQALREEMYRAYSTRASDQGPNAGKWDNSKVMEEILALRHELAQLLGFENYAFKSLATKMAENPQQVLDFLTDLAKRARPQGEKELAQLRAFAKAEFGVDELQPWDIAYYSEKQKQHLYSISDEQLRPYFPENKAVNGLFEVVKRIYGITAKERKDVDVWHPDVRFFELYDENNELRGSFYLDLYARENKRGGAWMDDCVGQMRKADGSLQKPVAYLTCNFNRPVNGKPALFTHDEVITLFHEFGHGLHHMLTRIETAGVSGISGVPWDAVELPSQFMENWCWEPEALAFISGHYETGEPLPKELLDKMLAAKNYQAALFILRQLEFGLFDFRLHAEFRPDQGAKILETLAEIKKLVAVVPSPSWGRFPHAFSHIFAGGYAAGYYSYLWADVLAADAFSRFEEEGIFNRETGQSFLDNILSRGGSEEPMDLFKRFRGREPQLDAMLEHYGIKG
As to the kind of experiment: Inhibition of purified E. coli proteinase In (fluorogenic substrate Boc-Val-Pro-Arg-NH-Mec). It counts as biochemical. The text has this: Since the GMCHA derivatives were originally identified as synthetic trypsin inhibitors in vitro, we investigated whether a trypsin-like protease could be detected in E. coli extracts using as fluorogenic substrate Boc-Val-Pro-Arg-NH-Mec. (Kato et al., Eur. J. Biochem., 210:1007-1014 (1992)). We detected a single activity and had purified it to homogeneity. […] The purified enzyme has a molecular mass of ˜66 kDa and an isoelectric point of 4.9. Based upon pH optimum, hydrolytic activity on various synthetic substrates, and effects of various known proteolytic inhibitors, this E. coli protease has very different specificity than mammalian trypsin or any of known bacterial enzymes. Most exciting is the finding that the sensitivity of the purified enzyme to various GMCHA derivatives paralleled exactly their inhibitory effects on E. coli (Table 1). […] (Kato et al., Biol.Pharm. Bull., 16:552-557 (1993)). […]. […] We named this enzyme proteinase In, and its gene was identical with prlC. The prlC gene encoded a 67 kDa protein with two active sites for proteinase In and oligopeptidase A. (Jiang et al., J. Biochem., 124:980-985 (1998)). […] (Irisawa et al., Biol. Pharm. Bull., 16:1211-1215 (1993)).

The test system of another data set is B. subtilis. As to the kind of experiment: Effects of aromatic esters of GMCHA on growth of B. subtilis. The data set is classed as cell-based. The conditions noted are these: for IC50: Bacillus subtilis.
For another data set, the system named is S. aureus. As to the kind of experiment: Effects of aromatic esters of GMCHA on growth of S. aureus. It counts as cell-based. The conditions noted are these: for IC20: Staphylococcus aureus, read-out: S. aureus IC20; for S. aureus IC100: growth.
The subject of another data set is S. epidermidis. The experiment in a line: Effects of aromatic esters of GMCHA on growth of S. epidermidis. The data set is classed as cell-based.
The subject of data set [1] is synchronized E. coli cells. The data set is classed as cell-based.
Data set [2] deals with H. pylori. As to the kind of experiment: MIC against 9 strains of H. pylori. The data set is classed as cell-based. The conditions noted are these: 9 ATCC strains of H. pylori. As to the method: MICs (μg/ml) of several substances against 9 strains (ATCC43504, ATCC43629, ATCC43526,ATCC43579,ATCC49503,ATCC51110,ATCC51652,ATCC51653, ATCC51932) of H. pylori were examined. NE-2001 had minimal inhibitory concentrations (MICs) ranging from 0.10 to 0.48 μg/ml.

The test system of data set [3] is H. pylori. As to the kind of experiment: Bactericidal effect against H. pylori (time course, various concentrations and pH). It counts as cell-based. The conditions noted are these: concentration ≧1.25 μg/ml. As to the method:
FIG. 2 illustrates the anti-H. pylori effects of the compound NE-2001. Bactericidal effect was examined at various concentration (0.15-2.50 μg/ml) for 168 hours. […] No visible organism was detected in 3 hr at a concentration of ≧1.25 μg/ml.

In a further data set the test system is H. pylori ATCC43504. As to the kind of experiment: Appearance frequency of natural resistant mutation. It counts as cell-based. The source says:
FIG. 3. Illustrates the anti-H. pylori effects of the compound NE-2001 at various pH values. The appearance frequency of natural resistant mutations against NE-2001 was examined (Table 4).

Data set [4] in a line: Single dose toxicity in mice. The data set is classed as in vivo.
[5] abbreviates: read-out: E. coli Proteinase In IC50.

Usually IC50 stands for the concentration that gives 50% inhibition. In general, IC20 refers to the point of the concentration-response curve where the effect stands at 20%. Broadly, the LD50 is the dose at which mortality reaches 50%. A high value points to lower toxicity.

Like-named read-outs stand apart in the source and are kept apart here.

As to `CCc1ccc(OC(=O)C2CCC(CNC(=N)N)CC2)cc1` (centres unmarked) [PH03], in the data set with E. coli, the IC50 was found to be 167 µM, the “E. coli IC91” value is 167 and the E. coli IC100 was greater than 200 µM. Further, the IC50 on E. coli Proteinase In (setting [5]) was greater than 200 µM. Moreover, in the data set on B. subtilis, the B. subtilis IC100 was greater than 200 µM and the IC50 was found to be 129 µM. In addition, in the data set with S. aureus, the IC20 is 15 µM and the S. aureus IC100 worked out at 50 µM. Besides, in the data set with S. epidermidis, the “S. epidermidis IC91” value was 14 and the S. epidermidis IC100 was determined as 50 µM.
With `N=C(N)NCC1CCC(C(=O)Oc2c(Cl)cc(Cl)cc2Cl)CC1` (centres unmarked) [PH06], the concentration for half-maximal inhibition (IC50) in the data set with E. coli was 44 µM; against E. coli Proteinase In, 35 µM.
For `CC(C)(C)c1ccc(OC(=O)C2CCC(CNC(=N)N)CC2)cc1` (centres unmarked) [PH04], in the data set on E. coli, half-maximal inhibition (IC50) was put at 45 µM, the “E. coli IC91” value is recorded as 45 and the E. coli IC100 is 90 µM. Further, the midpoint of inhibition against E. coli Proteinase In, the IC50, lay at 38 µM. In the data set with B. subtilis, this compound returned a B. subtilis IC100 of 50 µM and an IC50 of 26 µM. Also, in the data set with S. aureus, the IC20 was found to be 3.4 µM and the S. aureus IC100 stood at 15 µM. In the data set with S. epidermidis, the “S. epidermidis IC91” value is reported as 2.9 and the S. epidermidis IC100 came to 10 µM. For the same compound, in data set [1], the “duration of R1 period” value worked out at 35 min, the “time at which DNA synthetic activity doubled” value was found to be 65 min and the “time of initiation of DNA synthesis” value worked out at 30 min.
As to `N=C(N)NCC1CCC(C(=O)Oc2ccccc2-c2ccccc2)CC1` (centres unmarked) [BP02], the results for the IC50 in the data set with E. coli and against E. coli Proteinase In were 74 µM and 83 µM, respectively.
For `Cc1ccc(COC(=O)c2ccc(-c3ccc(OC(=O)c4ccc(CNC(=N)N)cc4)cc3)cc2)cc1` [NE-2001, 4-(4-methylbenzyl)-4′-[guanidinomethylbenzoyloxy] biphenyl-4-carboxylate], the “MIC Range” value in the data set with H. pylori [2] lay in the range of 0.10 to 0.48 µg/mL. Besides, the “time at which no visible organism was detected” value in the data set with H. pylori [3] is 3 h. The “Frequency of natural resistant mutation” value in the data set on H. pylori ATCC43504 (selected concentration of NE-2001 0.30 μg/ml), in the data set with H. pylori ATCC43504 (selected concentration of NE-2001 0.60 μg/ml) and in the data set on H. pylori ATCC43504 (selected concentration of NE-2001 1.20 μg/ml) was <3.4 × 10^−8 throughout. The LD50 in [4] (mouse, in vivo, 2000 mg/kg, oral, single dose, male mice, 6 weeks) is greater than 2000 mg/kg. The animal deaths result in [4] (mouse, in vivo, po, 2000 mg/kg) was “no animal deaths occurred”. In data set [4] (mouse, in vivo, po, 2000 mg/kg), the body weight result was “all animals gained weight”. In addition, the general toxicity result in data set [4] (oral 2000 mg/kg, male mice) is “observed in neither cases”.
Regarding `Cc1ncc([N+](=O)[O-])n1CCO` [Metronidazole], the “MIC Range” value against H. pylori [2] lay within 0.65 to 2.45 µg/mL.
Consider `N=C(N)NCC1CCC(C(=O)Oc2ccc(-c3ccccc3)cc2)CC1` (centres unmarked) [BP01], for which, in the data set on E. coli, it took 26 µM to reach half-maximal inhibition (IC50), the “E. coli IC91” value was found to be 26 and the E. coli IC100 amounted to 40 µM. The IC50 against E. coli Proteinase In was found to be 17 µM. Further, in the data set with B. subtilis, the B. subtilis IC100 was 10 µM and the IC50 was found to be 4 µM. In the data set with S. aureus, the IC20 amounted to 0.6 µM and the S. aureus IC100 was 2 µM. In addition, in the data set with S. epidermidis, the “S. epidermidis IC91” value worked out at 0.4 and the S. epidermidis IC100 is 1.5 µM.
Consider `CC1(C)S[C@@H]2[C@H](NC(=O)[C@H](N)c3ccc(O)cc3)C(=O)N2[C@H]1C(=O)O` [Amoxicillin], for which the “MIC Range” value in the data set on H. pylori [2] lay in the range of 0.01 to 0.08 µg/mL.
Take `Cc1ccc(OC(=O)C2CCC(CNC(=N)N)CC2)cc1` (centres unmarked) [PH02]: in the data set on E. coli, the IC50 was greater than 200 µM, the “E. coli IC91” value was greater than 200 and the E. coli IC100 is greater than 200 µM. Moreover, on E. coli Proteinase In (setting [5]), the IC50 was greater than 200 µM. In the data set with B. subtilis, the B. subtilis IC100 is greater than 200 µM and the IC50 was greater than 200 µM. Further, in the data set on S. aureus, the IC20 amounted to 47 µM and the S. aureus IC100 was found to be 120 µM. For the same compound, in the data set with S. epidermidis, the “S. epidermidis IC91” value stood at 48 and the S. epidermidis IC100 amounted to 120 µM.
As for `N=C(N)NCC1CCC(C(=O)Oc2ccccc2)CC1` (centres unmarked) [PH01], in the data set on E. coli, the IC50 was greater than 200 µM, the “E. coli IC91” value was greater than 200 and the E. coli IC100 is greater than 200 µM. For the same compound, on E. coli Proteinase In (setting [5]), the IC50 was greater than 200 µM. Besides, in the data set with B. subtilis, the B. subtilis IC100 was greater than 200 µM and the IC50 was greater than 200 µM. Also, in the data set on S. aureus, the IC20 is 151 µM and the S. aureus IC100 was greater than 200 µM. Besides, in the data set on S. epidermidis, the “S. epidermidis IC91” value stood at 128 and the S. epidermidis IC100 is greater than 200 µM.
As for `CC[C@H]1OC(=O)[C@H](C)[C@@H](O[C@H]2C[C@@](C)(OC)[C@@H](O)[C@H](C)O2)[C@H](C)[C@@H](O[C@@H]2O[C@H](C)C[C@H](N(C)C)[C@H]2O)[C@](C)(OC)C[C@@H](C)C(=O)[C@H](C)[C@@H](O)[C@]1(C)O` [Clarithromycin], in the data set on H. pylori [2], the “MIC Range” value is 0.01 to 0.90 µg/mL.
In the case of `N=C(N)NCC1CCC(C(=O)Oc2ccc(Cl)cc2Cl)CC1` (centres unmarked) [PH05], the figures for the IC50 in the data set on E. coli and against E. coli Proteinase In were 92 µM and 62 µM, respectively.
